Experimental data taken from patent US20050014193A1, “Identification of target-specific folding sites in peptides and proteins” (priority 2003, published 2005).
Square brackets hold non-standard residues; d marks the D form. Peptide text beside a SMILES is read from it. Nle = CCCC[C@H](N)C(=O)O

What was measured:
uPA receptor = biological target: T1, uPA receptor (Homo sapiens, UniProt Q03405); test: uPA receptor-binding assay using U937 cells and ATF as competitive ligand; details: within the Table 1 series
T1 construct: endogenous in cells; host or cells: U937 cells
T1 sequence (Q03405 23-305): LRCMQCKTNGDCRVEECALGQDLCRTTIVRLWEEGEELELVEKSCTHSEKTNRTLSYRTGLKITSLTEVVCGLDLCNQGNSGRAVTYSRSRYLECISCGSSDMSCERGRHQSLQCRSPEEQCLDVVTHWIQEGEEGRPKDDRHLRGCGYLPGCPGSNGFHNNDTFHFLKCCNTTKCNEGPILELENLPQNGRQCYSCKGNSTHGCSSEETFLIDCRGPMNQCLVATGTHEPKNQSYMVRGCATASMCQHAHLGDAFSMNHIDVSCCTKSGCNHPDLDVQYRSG

MC1-R = biological target: T2, MC1-R (Mus musculus, UniProt Q01727); test: Competitive inhibition of 125I-NDP-alpha-MSH binding, B-16 mouse melanoma cell membranes
T2 construct: B-16 mouse melanoma cells (containing MC1-R); endogenous in cells; host or cells: B-16 mouse melanoma cells (membranes)
T2 sequence (Q01727 whole entry): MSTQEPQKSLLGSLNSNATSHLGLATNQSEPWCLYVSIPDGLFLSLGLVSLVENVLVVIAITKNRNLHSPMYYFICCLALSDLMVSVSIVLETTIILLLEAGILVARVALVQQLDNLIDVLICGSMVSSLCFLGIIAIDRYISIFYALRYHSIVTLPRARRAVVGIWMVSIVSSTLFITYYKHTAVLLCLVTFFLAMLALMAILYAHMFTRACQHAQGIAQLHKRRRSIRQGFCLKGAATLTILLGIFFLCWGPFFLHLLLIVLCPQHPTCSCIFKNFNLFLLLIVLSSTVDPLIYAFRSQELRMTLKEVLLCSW
Text: (§1) Ac-Nle-Ala-His-D-Phe-Arg-Trp-NH2 is a known receptor-binding sequence for melanotropin receptors. […] A series of metallopeptides based on this sequence were synthesized by inserting a Cys residue after the 2 position and through the n+1 position and complexing the resulting Cys-containing peptide with an Re-oxo metal ion core as described Example 1. The resulting metallopeptides were screened for inhibiting the binding of 125-I-NDP-alpha-MSH radioligand using B-16 mouse melanoma cells for MCR-1 and cloned human MCR-2, -3 and -4 receptor transfected 293 cells.
(§2) The competitive inhibition binding assay was conducted using membranes prepared from hMC3-R, hMC4-R, hMC5-R, and B-16 mouse melanoma cells (containing MC1-R) using 0.4 nM ^125I-NDP-alpha-MSH (New England Nuclear, Boston, Mass., USA) in 50 mM HEPES buffer containing 1 mM MgCl2, 2 mM CaCl2, and 5 mM KCl, at pH 7.2. The assay tube also contained a chosen concentration of the test peptide of this invention, complexed to a rhenium metal ion as indicated, for determining its efficacy in inhibiting the binding of ^125I-NDP-alpha-MSH to its receptor. […] The filter was dried and counted in a gamma counter for remaining radioactivity bound to the membranes. 100% specific binding was defined as the difference in radioactivity (cpm) bound to cell membranes in the absence and presence of 1 μM alpha-MSH. […]

hMC4-R = biological target: T3, hMC4-R (Homo sapiens, UniProt P32245); test: Competitive inhibition of 125I-NDP-alpha-MSH binding, hMC4-R membranes
T3 construct: expressed in transfected cells; host or cells: 293 cells
T3 sequence (P32245 whole entry): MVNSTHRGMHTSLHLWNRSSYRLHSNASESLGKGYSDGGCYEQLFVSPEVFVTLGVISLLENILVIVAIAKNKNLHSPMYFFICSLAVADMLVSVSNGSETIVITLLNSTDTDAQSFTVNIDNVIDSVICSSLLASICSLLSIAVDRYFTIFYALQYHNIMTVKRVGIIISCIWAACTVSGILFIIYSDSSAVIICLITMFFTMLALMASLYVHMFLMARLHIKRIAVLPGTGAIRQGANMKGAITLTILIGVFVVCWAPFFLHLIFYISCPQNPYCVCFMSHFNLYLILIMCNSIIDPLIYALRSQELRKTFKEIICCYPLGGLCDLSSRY
Text: as §1, §2

Row | Compound | relative potency in uPA receptor binding (uPA receptor) | Ki (MC1-R) [nM] | Ki (hMC4-R) [nM]
1 | Ac-Val-Ser-Asn-Lys-Tyr-Phe-Ser-Asn-Ile-His-Cys-Trp-NH2 (Ac-VSNKYFSNIHCW-NH2; not fully specified (bridges); printed as Ac-Val-Ser-Asn-Lys-Tyr-Phe-Ser-Asn-Ile-His-Cys-Trp-NH2; also: oxorhenium(V) N3S1 metal chelate (Re=O)) [SEQ ID NO: 3] | most potent of all these molecules |  | 
2 | CCCC[C@H](NC(C)=O)C(=O)N[C@@H](C)C(=O)N[C@@H](Cc1c[nH]cn1)C(=O)N[C@H](Cc1ccccc1)C(=O)N[C@@H](CCCNC(=N)N)C(=O)N[C@@H](Cc1c[nH]c2ccccc12)C(N)=O [Ac-Nle-Ala-His-D-Phe-Arg-Trp-NH2] (Ac-[Nle]AH[dF]RW-NH2) |  | 100 | 2000
